Assay results published in PubChem BioAssay (NCI).
Values joined by “and” are separate entries in the source; they are usually repeats but may differ in a detail not shown here. Equal values may be shown once.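 Grown in 96-well plates, cells were treated for 48 hours with each compound at five concentrations. Insufficient inhibition: endpoint recorded as highest concentration tested. The concentration for 50% growth inhibition is given as GI50. TGI marks complete inhibition of growth.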

Columns and labels:
Assay in all cases: inhibition of tumour cell growth, NCI panel, 48 h
ACHN renal = test system: ACHN renal
DLD-1 colon = test system: DLD-1 colon
M14 melanoma = test system: M14 melanoma
M19-MEL melanoma = test system: M19-MEL melanoma
SF-295 CNS = test system: SF-295 CNS
SK-OV-3 ovarian = test system: SK-OV-3 ovarian
UO-31 renal = test system: UO-31 renal
HOP-92 NSCLC = test system: HOP-92 NSCLC
CAKI-1 renal = test system: CAKI-1 renal
MCF7 breast = test system: MCF7 breast

| Structure (SMILES) | TGI (ACHN renal) | TGI (DLD-1 colon) [µM] | TGI (M14 melanoma) | TGI (M19-MEL melanoma) [µM] | TGI (SF-295 CNS) | TGI (SK-OV-3 ovarian) | TGI (UO-31 renal) | TGI (HOP-92 NSCLC) | TGI (CAKI-1 renal) | GI50 (ACHN renal) [µM] | GI50 (CAKI-1 renal) [µM] | GI50 (HOP-92 NSCLC) [µM] | GI50 (M14 melanoma) [µM] | GI50 (MCF7 breast) [µM] | TGI (MCF7 breast) [µM] | GI50 (SF-295 CNS) [µM] | GI50 (SK-OV-3 ovarian) [µM] | GI50 (UO-31 renal) [µM] |
| --- | --- | --- | --- | --- | --- | --- | --- | --- | --- | --- | --- | --- | --- | --- | --- | --- | --- | --- |
| COC(=O)c1cc(=O)nc2cc3cccccc3n12 | > 100 µM | > 100 | > 100 µM | > 100 | > 100 µM | > 100 µM | > 100 µM |  |  |  |  |  |  |  |  |  |  |  |
| CCOC(=O)C1Cc2ccc3c4c(ccc(c24)C1)CC(C(=O)OCC)C3 | > 100 µM | > 100 | > 100 µM | > 100 | > 100 µM | > 100 µM | > 100 µM | > 100 µM |  |  |  |  |  |  |  |  |  |  |
| COc1ccccc1-c1cc(=O)c2cc(C)c(C)c(C(=O)O)c2o1 | > 100 µM | > 100 | > 100 µM | > 100 | > 100 µM | > 100 µM | > 100 µM | > 100 µM |  |  |  |  |  |  |  |  |  |  |
| C[N+](C)(C)CC1CCCCC1=O (stereo unspecified) | 34.4 µM | 39.2 | 30.2 µM | 35.2 | > 100 µM | > 100 µM | > 100 µM |  |  |  |  |  |  |  |  |  |  |  |
| CC1CC2(S(=O)(=O)c3ccccc3)ON1CC2S(=O)(=O)c1ccccc1 (stereo unspecified) | > 100 µM | > 100 | > 100 µM | > 100 | > 100 µM | > 100 µM | > 100 µM |  | > 100 µM |  |  |  |  |  |  |  |  |  |
| COc1cc(F)ccc1-c1cc(Nc2cc(CS(C)(=N)=O)ccn2)ncc1F (stereo unspecified) | > 100 µM |  | > 37.6 µM |  | > 100 µM | > 100 µM | > 100 µM | 0.314 µM | > 100 µM | 0.0371 | 0.0438 | 0.0214 | 0.0649 | 0.0391 | > 100 | 0.0662 | 0.638 | 0.0337 |
| CCCCCCNCCCNc1c2cc(OC)ccc2nc2cccc([N+](=O)[O-])c12 | 1.54 µM and 0.535 µM |  | 0.285 µM and 0.293 µM |  | 0.413 µM and 1.03 µM | 4.94 µM and 0.961 µM | 0.703 µM and 0.431 µM | 0.534 µM and 0.655 µM | 0.797 µM and 0.748 µM | 0.159 | 0.24 | 0.239 | 0.143 | 0.0348 | 0.398 | 0.163 | 0.266 | 0.187 |
| Nc1nc(N)c2cc(Sc3ccc4ccccc4c3)ccc2n1 | 5.15 µM |  | 2.88 µM |  | 4.91 µM | 17.5 µM | 7.69 µM | 5.44 µM | 15.7 µM |  |  |  |  |  | 2.86 |  |  |  |
| CCCc1nc(Cl)nc(Cl)c1Cl | 1.62 µM |  | 1.13 µM |  | 6.89 µM | 6.95 µM | 0.111 µM | 0.532 µM | 0.433 µM |  |  |  |  |  | 1.52 |  |  |  |
| COc1ccc2c(c1)C(=O)/C(=C/c1cccc(OCC(=O)Nc3nc(C)c(C)s3)c1)O2 | 0.779 µM |  | 0.426 µM |  | 26.3 µM | 25.6 µM | 0.0378 µM | 0.0562 µM | 1.16 µM | 0.139 | 0.271 | 0.0186 | 0.187 | 1.63 | 3.48 | 12.7 | 12.8 | 0.0222 |
| O=C(NN1C(=O)CSC1c1cccc(Cl)c1)C(O)c1ccccc1 (stereo unspecified) | > 100 µM |  | > 100 µM |  | > 100 µM | > 100 µM | > 100 µM | > 100 µM | > 100 µM | 67.4 | 90.3 | > 100 | > 100 | > 100 | > 100 | 22.4 | > 100 | 75.5 |
| CCCCCCCCCc1ccc(OCCOCCOCCOCCOCCOCCOCCOCCOCCO)cc1 | 5.7 µM |  | 2.13 µM |  | 1.96 µM | 2.45 µM | 4.82 µM | 3.07 µM | 5.75 µM | 1.19 | 0.478 | 0.792 | 0.892 | 0.328 | 1.96 | 0.304 | 0.991 | 0.733 |
| N=c1ccc2nc3ccc(N)cc3sc-2c1 | 23.2 µM |  | 21.8 µM |  | 59.1 µM | 63.5 µM | > 100 µM | 61 µM | 20.3 µM | 8.55 | 4.19 | 17.7 | 4.34 | 3.5 | 13.1 | 4.28 | 15.6 | 26 |
| CC(=O)c1ccc2c(c1)N(CCCN1CCN(CCO)CC1)c1ccccc1S2 | 11.4 µM |  | 3.6 µM |  | 4.26 µM | 10.1 µM | 5.46 µM | 5.97 µM | 4.22 µM | 2.98 | 1.73 | 1.1 | 1.88 | 1.78 | 3.52 | 2.15 | 2.84 | 1.79 |
